This note sets out measurements from PubChem BioAssay AID1996.

Structures are written as SMILES. In brackets after ≈: the same amount, converted by molar mass. Some results are limits rather than exact numbers.

The conditions of the data set: buffer; pH 7.4; 200.0 µM.
The term kinetic solubility denotes solubility judged after dilution from a stock solution rather than from solid. In turn, `Cc1cccn2c(=O)c(/C=C(\C#N)C(N)=O)c(Oc3ccccc3)nc12` had a kinetic solubility of 7.9 µg/mL (≈ 22.8 µM).
Take `COc1ccc(NC(=O)c2cc(-c3ccc(C)cc3)on2)cc1`: the kinetic solubility was below 0.3 µg/mL.
For `COc1ccc(CN2CCc3c([nH]c4ccccc34)C2)c(OC)c1C`, the solubility (kinetic) amounted to 35.2 µg/mL (≈ 105 µM).
`Cc1occc1C(=O)/C(C#N)=C/c1ccc(O)c(Br)c1` registered a solubility (kinetic) above 49.8 µg/mL.
As for `O=C(CN1C(=O)c2ccccc2C1=O)Nc1ccc(Cl)cn1`, the figure is 4.6 µg/mL (≈ 14.6 µM).
As for `CC(=O)Nc1ccc(SCc2c(C)noc2C)cc1`, the figure is above 41.5 µg/mL; as for `CC1CCCN(C(=O)c2cc3ccccc3cc2O)C1` (stereo unspecified), 38.5 µg/mL (≈ 143 µM).
In the case of `Cc1ccc(C(=O)Nc2cccc(NC(=O)c3ccc(C)o3)n2)o1` it was 4 µg/mL (≈ 12.3 µM).
In the case of `CC(c1ccccc1)C(CC(=O)O)C(=O)Nc1ccc(Cl)c(Cl)c1` (stereo unspecified), the kinetic solubility was 46 µg/mL (≈ 126 µM).
For the compound `COc1cccc(/C=C/c2ccc3cccc(O)c3n2)c1OC`, the kinetic solubility was found to be 1.2 µg/mL (≈ 3.9 µM).
In the case of `O=C(NC1=NCCS1)C1CC(=O)N(c2ccc(Cl)cc2)C1` (stereo unspecified) it was above 48.6 µg/mL; in that of `CN(C)CCNC(=O)COc1cccc2c1OC(C)(C)C2`, above 43.9 µg/mL.
As for `Clc1cccc(C2NCc3ccccc3-n3cccc32)c1` (stereo unspecified), the figure is 3.5 µg/mL (≈ 11.9 µM); as for `Cc1nc(CSc2nnc(N)s2)cs1`, above 36.7 µg/mL; as for `COc1ccccc1Nc1c2ccccc2nc2ccccc12`, 35.5 µg/mL (≈ 118 µM).
As for `Oc1ccc(Br)cc1CNc1nccs1`, the figure is 4.4 µg/mL (≈ 15.4 µM); as for `Cc1cc2oc(=O)cc(CN3CCCCC3C)c2cc1C` (stereo unspecified), 17.9 µg/mL (≈ 62.7 µM); as for `O=C(Nc1cccc([N+](=O)[O-])c1)N1CCc2ccccc2C1`, 28.6 µg/mL (≈ 96.2 µM).
Consider `O=C(COC(=O)c1ccc2c(c1)OCO2)Nc1ccccc1`, for which the solubility (kinetic) came to 4.5 µg/mL (≈ 15 µM).
In the case of `Cc1cccc(NC(=O)CN(C)C(=O)C2CC2)c1C` it was above 39.1 µg/mL; in that of `CCOc1ccc(-c2cnc3ccccc3n2)cc1`, 0.8 µg/mL (≈ 3.2 µM).
In the case of `COc1ccc(C2=CSC3=NCCN23)cc1[N+](=O)[O-]` it was 40.2 µg/mL (≈ 145 µM); in that of `Cc1cc2c(c(SCC(N)=O)n1)C(=O)OC2`, above 35.7 µg/mL.
Turning to `Cc1nn(C)cc1C(=O)Nc1ccc2c(c1)OCCO2`, the kinetic solubility was above 41 µg/mL.
With `CC(C)(C)S(=O)(=O)c1cnc(N2CCOCC2)nc1N`, the kinetic solubility came to 32.8 µg/mL (≈ 109 µM).
As for `O=C(c1ccccc1)C1CCN(c2ncccc2[N+](=O)[O-])CC1`, the figure is 10.8 µg/mL (≈ 34.7 µM); as for `Cn1nccc1NC(=O)Nc1ccc(Cl)cc1`, above 37.6 µg/mL.
As for `COC(=O)c1sccc1NC(=O)Nc1ccc(C)cc1C`, the figure is 6.6 µg/mL (≈ 21.7 µM); as for `CCOc1ccc(NC(=O)C2CCN(S(C)(=O)=O)CC2)cc1`, 20.2 µg/mL (≈ 61.9 µM); as for `Cc1cccc(NC(=O)CCN2CCC(C(N)=O)CC2)c1`, 41.1 µg/mL (≈ 142 µM).
As for `Cc1ccccc1NC(=O)Nc1ccccn1`, the figure is 0.7 µg/mL (≈ 3.08 µM); as for `O=C(CSc1ncnc2ccccc12)Nc1ccc2c(c1)OCCO2`, 1.3 µg/mL (≈ 3.68 µM); as for `Cc1nc2c(C(F)(F)F)cccc2c2c1CCS2`, below 0.6 µg/mL.
`O=[N+]([O-])c1ccc(NC2CCCC2)c2ccncc12` showed a kinetic solubility of 3 µg/mL (≈ 11.7 µM).
Regarding `NC(=O)/C(=C\c1ccco1)NC(=O)c1ccc(Br)o1`, the solubility (kinetic) came out at 42.9 µg/mL (≈ 132 µM).
As for `Cc1c(NS(=O)(=O)c2cccc(C(=O)N3CCCC3)c2)c(=O)n(-c2ccccc2)n1C`, the figure is above 66.1 µg/mL; as for `Nc1c(C(=O)Nc2ccccc2)sc2ncc([N+](=O)[O-])cc12`, below 0.2 µg/mL.
`O=C(CSc1nc2ncccc2[nH]1)c1ccc2c(c1)OCO2` came in with a solubility (kinetic) of 0.7 µg/mL (≈ 2.23 µM).
In the case of `O=C1Nc2ccccc2C1=Nc1ccc(F)cc1` it was above 36 µg/mL; in that of `O=C(O)CN1C(=O)C(=O)N(Cc2ccc(C(F)(F)F)cc2)C1=O`, above 49.5 µg/mL; in that of `Cc1ccc(-c2csc3nc[nH]c(=O)c23)c(C)c1`, 2.4 µg/mL (≈ 9.36 µM).
As to `O=C(NC1CCCC1)C1CCN(c2cnccn2)CC1`, the solubility (kinetic) is above 41.2 µg/mL.
In the case of `Cc1cc(Cl)ccc1OCCCC(=O)NCc1ccccn1` it was above 47.8 µg/mL; in that of `CCCCOc1ccc(Cc2cnc(N)nc2N)cc1`, 36.3 µg/mL (≈ 133 µM).
In the case of `CSc1ccc(S(=O)(=O)N2c3ccccc3CC2C)cc1` (stereo unspecified) it was 1.7 µg/mL (≈ 5.32 µM).
As for `CCOc1ccc(NC(=O)C2C3CC/C=C\CCC32)cc1` (stereo unspecified), the figure is below 0.6 µg/mL.
`Cc1ccc(C2(C)NC(=O)N(CC(=O)N3CCN(S(=O)(=O)c4cccc([N+](=O)[O-])c4)CC3)C2=O)cc1` (stereo unspecified): the kinetic solubility turned out to be 12.7 µg/mL (≈ 24.6 µM).
As to `NC(=O)Nc1ccccc1C(=O)Nc1ccc2ccccc2c1`, the solubility (kinetic) stood at 19.6 µg/mL (≈ 64.2 µM).
In the case of `O=C(CC1SC(=Nc2ccc(O)cc2)NC1=O)Nc1ccccc1` (stereo unspecified) it was 3.9 µg/mL (≈ 11.4 µM); in that of `Cc1cc2c(=O)n(C)c(SCC(=O)Nc3cccc(F)c3)nc2s1`, below 0.3 µg/mL; in that of `Cc1c(Cl)cccc1NC(=S)NCCc1ccc(Cl)cc1`, 0.4 µg/mL (≈ 1.18 µM).
In the case of `O=C(CNC(=O)c1ccc(Br)o1)NCc1ccccc1` it was above 50.6 µg/mL.
Regarding `COc1ccc(S(=O)(=O)Nc2ncccc2C)c2ccccc12`, the solubility (kinetic) stood at 37.6 µg/mL (≈ 114 µM).
As for `CCCC(=O)N(Cc1cc(=O)[nH]c2ccccc12)c1ccc(OC)cc1`, the kinetic solubility was above 52.6 µg/mL.
In the case of `Cc1ccc(S(C)(=O)=NC(=O)NC(=O)c2c(F)cccc2Cl)cc1` (stereo unspecified) it was 41.1 µg/mL (≈ 111 µM); in that of `CCC/C(O)=C1\C(=O)CCCC1=NCCc1c(C)[nH]c2ccc(C)cc12`, 0.4 µg/mL (≈ 1.13 µM); in that of `O=C(CSc1cccc[n+]1[O-])N1CCc2ccccc21`, above 43 µg/mL.
In the case of `Cc1ccc2[nH]cc(/C=C/c3cc[n+](C)cc3)c2c1.[I-]` it was above 56.4 µg/mL.
As for `CCNC(=O)C(=O)c1c(-c2ccccc2)[nH]c2ccccc12`, the figure is above 43.9 µg/mL.
Compound `CCOCCCNC(=O)/C(C#N)=C/c1cc(C)c(O)c(C)c1` returned a kinetic solubility of 7 µg/mL (≈ 23.2 µM).
In the case of `COc1ccc(C2(c3ccc(OC)cc3)NC(=O)N(CC(=O)Nc3cc(C)on3)C2=O)cc1` it was 27.4 µg/mL (≈ 60.8 µM).
As for `O=C(N/N=C/c1cccnc1)c1cc(C2CC2)nc2ccccc12`, the figure is above 47.5 µg/mL; as for `Cc1cc(-c2csc3nc[nH]c(=S)c23)cc(C)c1C`, 3.1 µg/mL (≈ 10.8 µM); as for `CC1(C)Cc2c(sc(NC(=O)Cc3ccccc3)c2C#N)CO1`, 0.4 µg/mL (≈ 1.23 µM).
As for `O=C(N/C(=C/c1ccco1)C(=O)N1CCc2ccccc21)c1ccco1`, the figure is 4.4 µg/mL (≈ 12.6 µM); as for `CCOc1ccc(Nc2nc(N)c([N+](=O)[O-])c(N3CCN(C)CC3)n2)cc1`, 51.9 µg/mL (≈ 139 µM); as for `COc1ccc(/C=C2\SC(N)=NC2=O)cc1Cl`, 3.1 µg/mL (≈ 11.5 µM).
On to `Cc1cc(C)cc(NC(=O)Nc2ccc3c(c2)CCC3)c1`, for which the kinetic solubility was below 0.3 µg/mL.
Compound `O=C(NCCOc1ccc(Cl)cc1)c1ccc2c(c1)OCCO2` registered a solubility (kinetic) of 6.3 µg/mL (≈ 18.9 µM).
As for `CC(c1ccccc1)N1C(=O)/C(=C/c2ccncc2)SC1=S` (stereo unspecified), the kinetic solubility was found to be 1.3 µg/mL (≈ 3.98 µM).
As for `COc1ccc(OC)c(NC(=O)CCCC(=O)NC2CCCCC2)c1`, the figure is above 52.3 µg/mL.
In the case of `COc1cc(CC(=O)OCC(=O)NC2CCCCCC2)cc(OC)c1OC` it was above 56.9 µg/mL.
In the case of `COC(=O)c1cccc(NC(=O)c2cnccn2)c1` it was 9.5 µg/mL (≈ 36.9 µM); in that of `CCc1ccccc1NC(=O)CCS(=O)(=O)c1ccc(OC)cc1`, 26.4 µg/mL (≈ 76 µM); in that of `COC(=O)c1ccccc1S(=O)(=O)N1CCC(C(=O)Nc2ccc(N3CCOCC3)cc2)CC1`, above 73.1 µg/mL.
Turning to `C=CCOn1c(=O)c(-c2ccc(Cl)cc2)[n+]([O-])c2ccccc21`, the solubility (kinetic) was 0.8 µg/mL (≈ 2.43 µM).
In turn, `O=C(NCc1ccccn1)Nc1ccccc1F` yielded a solubility (kinetic) above 36.8 µg/mL.
For the compound `COCCN1C(=O)CS/C1=C(/C#N)C(=O)NCc1ccco1`, the solubility (kinetic) was 41.4 µg/mL (≈ 129 µM).
As for `COc1nc(N)nc2nc[nH]c12`, the figure is above 24.8 µg/mL.
In turn, `COC(=O)c1c(C)[nH]c(C(=O)C(C)OC(=O)C2CC2C)c1C` (stereo unspecified) registered a solubility (kinetic) above 46.1 µg/mL.
As for `CN1CCN(CC(=O)N2c3ccccc3Sc3ccccc32)CC1`, the figure is above 50.9 µg/mL; as for `Cc1cc2nc(NCCCO)n(CC(=O)c3cc(C(C)(C)C)c(O)c(C(C)(C)C)c3)c2cc1C`, 0.5 µg/mL (≈ 1.07 µM); as for `COc1cccc(/C=C/c2ccccn2)c1O`, 34 µg/mL (≈ 150 µM).
As for `Cc1ccc(S(=O)(=O)c2c[nH]c3ccc(Cl)cc3c2=O)cc1`, the figure is below 0.7 µg/mL; as for `CCOc1ccc(N(CC(=O)Nc2cccc(C)c2)S(C)(=O)=O)cc1`, 35.6 µg/mL (≈ 98.2 µM); as for `CCN(C(=O)c1cccs1)c1nc(-c2ccc(OC)cc2)cs1`, 0.6 µg/mL (≈ 1.74 µM).
In the case of `O=C(CCS(=O)(=O)c1ccccc1)Nc1ccc(S(=O)(=O)Nc2nccs2)cc1` it was 23.6 µg/mL (≈ 52.3 µM); in that of `N/C(=N\OC(=O)c1ccc(Cl)c([N+](=O)[O-])c1)c1ccccc1`, 7.9 µg/mL (≈ 24.7 µM); in that of `CC(Oc1cccc(Cl)c1)C(=O)N1CCCN(C)CC1` (stereo unspecified), above 44.5 µg/mL.
In turn, `Cc1cccc(C(=O)NCCCn2ccnc2)c1C` gave a solubility (kinetic) of 37.6 µg/mL (≈ 146 µM).
In the case of `CCN1C(=O)CCC(C(=O)O)C1c1ccc(OC)cc1` (stereo unspecified) it was above 41.6 µg/mL; in that of `CC(=O)N1CCN(c2ccc(S(=O)(=O)N3CCCCC3)cc2[N+](=O)[O-])CC1`, above 59.5 µg/mL.
In the case of `CCOC(=O)N1CCN(S(=O)(=O)c2ccc3c4c(cccc24)C(=O)N3)CC1` it was 3.6 µg/mL (≈ 9.24 µM).
In the case of `O=c1cc(C(F)(F)F)nc(SCc2cccc3ccccc23)[nH]1` it was 7.5 µg/mL (≈ 22.3 µM); in that of `O=C(NCCc1ccccc1)C1CCN(C(=O)c2ccc(F)cc2)CC1`, 47.4 µg/mL (≈ 134 µM).
Take `CCOC(=O)CNc1nc(Cl)nc(N2CCCCC2)n1`: the solubility (kinetic) came out at 12.3 µg/mL (≈ 41 µM).
As for `CCOC(=O)C1=C(C)NC(C)=C(C(=O)OC)C1c1ccco1` (stereo unspecified), the figure is 34.1 µg/mL (≈ 112 µM).
In the case of `O=C1C2CCCCN2C(=O)N1CCCN1CCN(c2ccc(F)cc2)CC1` (stereo unspecified) it was 48.1 µg/mL (≈ 128 µM).
For the compound `O=C(CCCOc1ccc(Cl)cc1Cl)NCc1ccncc1`, the solubility (kinetic) was found to be 43.6 µg/mL (≈ 129 µM). This solubility kinetic and that of the compound before are within 1.5-fold of each other.
Consider `Cc1ccc(S(=O)(=O)Nc2nc(C)c(C)s2)cc1`, for which the kinetic solubility was 13.5 µg/mL (≈ 47.8 µM).
As for `O=C(COC(=O)Cc1ccccc1F)Nc1cccc(F)c1`, the figure is above 45.8 µg/mL.
